According to patent US20200179331A1, “Peptide-Artesunate Conjugates as Targeted Anti-Cancer Agents” (priority 2017, published 2020):
Where two headings read alike, the source gives them in different places. Values belong to the compound of their own block, whether it stands above or below them. Residues, ends and D or L forms follow the SMILES beside them. *: point of attachment. X1 = C[C@H]1[C@H](OC(=O)CCC(=O)*)O[C@@H]2O[C@@]3(C)CC[C@H]4[C@H](C)CC[C@@H]1[C@@]24OO3

Key:
[1] = reference [50]; cell line not given; read-out: IC50, anticancer ability of commonly used anticancer drugs; cited from earlier work
[2] = Dichlorofluorescein assay (reactive oxygen species formation with Fe2+); conditions: for reactive oxygen species formation, DCF fluorescence: 20 μM, Fe2+ 5-25 μM, 10 μM DCFH-DA, 30 min
Procedure: The assay was carried out following a reported procedure either in presence of hydrogen peroxide, Artesunate with and without Fe2+, and ART-HER2 conjugate with and without Fe2+[43]. In this assay non-fluorescent DCFH-DA (2′, 7′-Dichlorofluorescin diacetate treated with methanol and NaOH, as described in reference 43) is converted to a fluorescent derivative, known as dichlorofluorescein (DCF), in presence of an oxidizing agent (e.g. reactive oxygen species). By quantifying the concentration of fluorescent DCF, the concentration of oxidizing agent can be determined.
Formation of free radical species from the reaction of Artesunate with […] was additionally measured by dichlorofluorescein assays. Oxidation of 2′, 7′-Dichlorofluorescin diacetate (DCFH-DA) by reactive oxygen species generates dichlorofluorescein, which is fluorescent (˜520 nm).

[3] = MTT assay, Caco-2 cells (HER2-positive)
Procedure: (§1) CCD-18 cells were maintained in Dulbecco's minimal essential medium (DMEM, ATCC) supplemented with 10% fetal bovine serum (FBS, ATCC), 100 U/ml penicillin G, and 100 μg/ml streptomycin at 37° C. in a humid atmosphere of 5% CO2 atmosphere. Caco-2 cells were maintained in Dulbecco's minimal essential medium (DMEM, ATCC) supplemented with 20% fetal bovine serum (FBS,ATCC), 100 U/ml penicillin G, and 100 μg/ml streptomycin at 37° C. in a humid atmosphere of 5% CO2 atmosphere; culture medium was replaced with a fresh medium every 2-3 days. All experiments were performed with actively growing cells in logarithmic growth phase.
(§2) The assay was carried out following a reported procedure. In brief, approximately 1,000 to 5,000 cells were plated per well in 96-well plate. The plates were incubated at 37° C. for 48 or 72 hours in a humidified, 5% CO2 atmosphere. Cells were incubated either with Artesunate or with ART-HER2 conjugate at various concentrations. To measure mitochondrial activity, a metric for cell viability, 15 μL of [3-{4, 5-dimethylthiazol-2-yl)-2, 5-diphenyltetrazolium bromide (MTT) was added to each well and incubated at 37° C. for 4 hours in a humidified, 5% CO2 atmosphere. After incubation, 100 μl of the solubilization solution/stop mix was added to each well. The blue formazan product formed by reduction of MTT by mitochondrial dehydrogenase in viable cells was then measured by absorbance at 570 nm.
(§3) The cytotoxicity of Artesunate was then investigated with two human colon cell lines, a normal colon cell line CCD-18 and a cancerous colon cell line Caco-2, using the well-established MTT assay. […] Dose-dependent assays were performed in 96-well format and IC50 values were determined by plotting the cell viability against Artesunate concentration (FIG. 11 and FIG. 12).

[4] = Deoxyribose degradation assay (free radical formation with Fe2+); conditions: 200 μM, Fe2+ 5-25 μM, 10 minutes
Procedure: This assay quantifies the formation of hydroxyl radicals or peroxyl radicals. The assay was carried out following a reported procedure. Briefly, 500 μL reaction volumes containing 10 mM 2-deoxyribose, 100 μM ascorbic acid, and various concentrations of Fe2+ were prepared. Degradation of 2-deoxyribose was initiated either by addition of 200 μM of hydrogen peroxide or 200 μM of Artesunate. The reaction was allowed to run for 10 minutes and then stopped by the addition of 500 μL of 10% (w/v) trichloroacetic acid (TCA) followed by 0.5 mL 1% 2-thiobarbituric acid (TBA). After heating at 80° C. for 15 minutes, the absorbance at 532 nm was measured.
To measure the concentration of free radical species generated by Artesunate reacting with Fe^2+, 2-deoxyribose degradation assays were formed (FIG. 6). Degradation of 2-deoxyribose by action of hydrogen peroxide is shown as a positive control and 2-deoxyribose alone is shown as a negative control (FIG. 6).

[5] = MTT assay, CCD-18 cells (HER2-negative normal colon); conditions: human, CCD-18 cells (normal colon, HER2-negative)
Procedure: as §1
The assay was carried out following a reported procedure. In brief, approximately 1,000 to 5,000 cells were plated per well in 96-well plate. The plates were incubated at 37° C. for 48 or 72 hours in a humidified, 5% CO2 atmosphere. […] The blue formazan product formed by reduction of MTT by mitochondrial dehydrogenase in viable cells was then measured by absorbance at 570 nm.
as §3

[6] = system: Caco-2 cells; experiment: MTT assay, Caco-2 cells (HER2-positive)
Procedure: as §1, §2, §3

[7] = system: HCT116 cells; experiment: Sulforhodamine B (SRB) colorimetric assay, HCT116 proliferation; assay type: cell-based; conditions: Homo sapiens, HCT-116, 96-well format, read-out: IC50, inhibition of the proliferation of HCT116 cells
Procedure: Mouse B16-F10 melanoma cancer cells and human HCT116 colon cancer cells were grown in culture respectively in DMEM medium or McCoy's 5 A medium supplemented with 10% fetal bovine serum and 5% antibiotic in a 5% CO2 atmosphere at 37° C. Cultures were divided 1:2 every 48 h to an approximate cell density of 1.2 million cells per ml and used for experiments after 24 hours of growth in culture.

Compound: O=c1[nH]cc(F)c(=O)[nH]1 [5-FU, 5-fluorouracil]
IC50 [1]: ~15 µM

Compound: CC(C)C[C@H](NC(=O)[C@H](CO)NC(=O)[C@H](Cc1ccc(O)cc1)NC(=O)[C@H](CS)NC(=O)[C@H](CS)NC(=O)[C@H](CCCCN)NC(=O)CNC(=O)[C@H](CO)NC(=O)CNC(=O)CCC(=O)O[C@@H]1O[C@@H]2O[C@@]3(C)CC[C@H]4[C@H](C)CC[C@@H]([C@H]1C)[C@@]24OO3)C(N)=O [ART-HER2 conjugate] (X1-GSGKCCYSL-NH2)
free radical species formation in presence of Fe2+ (in words) ([2]; 2-deoxyribose degradation and dichlorofluorescein assays, increasing Fe2+): increases in presence of increasing levels of Fe^+
IC50 [3]: ~15 µM

IC50 [5]: ~5.6 µM
IC50 [7]: ~0.63 µM
Compound: C[C@H]1[C@H](OC(=O)CCC(=O)O)O[C@@H]2O[C@@]3(C)CC[C@H]4[C@H](C)CC[C@@H]1[C@@]24OO3 [Artesunate]
free radical generation, 2-deoxyribose degradation (absorbance 532 nm) [4]: reacts with Fe^2+ to generate free radical species that are sufficient to degrade 2-deoxyribose
reactive oxygen species formation, DCF fluorescence [2]: Fe^2+-dependent activation of dichlorofluorescein fluorescence
fold higher toxicity against Caco-2 cells compared to CCD-18 cells ([6]; Caco-2): ~5.7 fold
IC50 ([6]; Homo sapiens, Caco-2, read-out: IC50, cytotoxicity against Caco-2 cells): ~0.97 µM

Compound: OO [H2O2, hydrogen peroxide]
reactive oxygen species formation, DCF fluorescence [2]: Fe^2+-dependent activation of dichlorofluorescein fluorescence

Compound: N.N.O=C([O-])C1(C(=O)[O-])CCC1.[Pt+2] [carboplatin]
IC50 [1]: ~12 µM
